Data reported in US20240158446A1, “CYCLIC COMPOUND HAVING SELECTIVE INHIBITORY ACTION ON KRAS OVER HRAS AND NRAS” (CHUGAI SEIYAKU KABUSHIKI KAISHA, priority 2021, published 2024).

What was measured:
[1] = target: GDP-bound NRAS wild-type protein (Homo sapiens, UniProt P01111); experiment: Binding to NRAS by surface plasmon resonance (SPR), Single Cycle Kinetics; details: for NRAS/KRAS (ratio of KD value for NRAS to KD value for KRAS) / NRAS/KRAS (ratio of KD value with respect to NRAS to KD value with respect to KRAS): SPR, GDP-bound NRAS wild-type protein vs GDP-bound KRAS wild-type protein; for NRAS/KRAS (ratio of KD value with respect to GDP-bound NRAS wild-type protein to KD value with respect to KRAS): SPR KD ratio NRAS/KRAS, class symbols
GDP-bound NRAS wild-type protein, sequence (P01111 whole entry): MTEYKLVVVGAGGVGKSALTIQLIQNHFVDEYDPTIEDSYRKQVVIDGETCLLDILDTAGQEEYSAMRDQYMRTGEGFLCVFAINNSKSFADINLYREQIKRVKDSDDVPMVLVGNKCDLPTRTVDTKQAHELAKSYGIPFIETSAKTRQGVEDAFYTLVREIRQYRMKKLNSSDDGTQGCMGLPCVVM

[2] = target: GDP-bound HRAS wild-type protein (Homo sapiens, UniProt P01112); experiment: Binding to HRAS by surface plasmon resonance (SPR), Single Cycle Kinetics; details: for HRAS/KRAS (ratio of KD value for HRAS to KD value for KRAS) / HRAS/KRAS (ratio of KD value with respect to HRAS to KD value with respect to KRAS): SPR, GDP-bound HRAS wild-type protein vs GDP-bound KRAS wild-type protein; for HRAS/KRAS (ratio of KD value with respect to GDP-bound HRAS wild-type protein to KD value with respect to KRAS): SPR KD ratio HRAS/KRAS, class symbols
GDP-bound HRAS wild-type protein, sequence (P01112 whole entry): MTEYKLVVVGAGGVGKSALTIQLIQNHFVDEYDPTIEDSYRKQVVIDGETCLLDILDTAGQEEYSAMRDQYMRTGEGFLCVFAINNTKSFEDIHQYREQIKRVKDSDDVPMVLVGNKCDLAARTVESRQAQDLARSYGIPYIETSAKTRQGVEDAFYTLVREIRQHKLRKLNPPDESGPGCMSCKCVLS

| Structure (SMILES) | NRAS/KRAS (ratio of KD value for NRAS to KD value for KRAS) [1] | HRAS/KRAS (ratio of KD value for HRAS to KD value for KRAS) [2] | NRAS/KRAS (ratio of KD value with respect to GDP-bound NRAS wild-type protein to KD value with respect to KRAS) [1] | HRAS/KRAS (ratio of KD value with respect to GDP-bound HRAS wild-type protein to KD value with respect to KRAS) [2] | also measured |
| --- | --- | --- | --- | --- | --- |
| CCC[C@H]1C(=O)N[C@@H]([C@H](C)CC)C(=O)N(C)CC(=O)N(C)[C@H]2C/C=C\CCN(C2=O)[C@@H](Cc2ccc(C)cc2)C(=O)N(C)CC(=O)N[C@@H](CCc2ccc(C(F)(F)F)c(Cl)c2)C(=O)N2C[C@H](OCC)C[C@H]2C(=O)NC2(CC(C)(C)C2)C(=O)N(C)[C@@H](CC(C)(C)C)C(=O)N(C)[C@H](C(=O)N(C)C)CC(=O)N1C [PP2219] | A (a compound having 10 or more and less than 20 is denoted as A) | A (a compound having 10 or more and less than 20 is denoted as A) |  |  |  |
| CCC(CC)[C@H]1C(=O)N(C)[C@H](C(=O)N(C)C)CC(=O)N(C)[C@@H](COC)C(=O)N[C@@H]([C@@H](C)CC)C(=O)N(C)CC(=O)N(C)[C@H]2C/C=C\CCN(C2=O)[C@@H](Cc2ccc(C)cc2)C(=O)N(C)CC(=O)N[C@@H](CCc2cc(F)c(C(F)(F)F)c(F)c2)C(=O)N2CCCC[C@H]2C(=O)NC2(CC(C)(C)C2)C(=O)N1C [PP2922] |  |  | AA (a compound having 20 or more is denoted as AA) | A (a compound having 10 or more and less than 20 is denoted as A) |  |
| CCC[C@H]1C(=O)N[C@@H]([C@@H](C)CC)C(=O)N(C)CC(=O)N(C)[C@H]2C/C=C\CCN(C2=O)[C@@H](Cc2ccc(C(F)(F)F)cc2)C(=O)N(C)CC(=O)N[C@@H](CCc2cc(F)c(Cl)c(OC)c2)C(=O)N2C[C@H](OCC)C[C@H]2C(=O)NC2(CC(C)(C)C2)C(=O)N(C)[C@@H](C2CCCC2)C(=O)N(C)[C@H](C(=O)N(C)C)CC(=O)N1C [PP2864] |  |  | A (a compound having 10 or more and less than 20 is denoted as A) | A (a compound having 10 or more and less than 20 is denoted as A) |  |
| CC[C@H](C)[C@@H]1NC(=O)[C@H](CC(C)C)N(C)C(=O)C[C@@H](C(=O)N(C)C)N(C)C(=O)[C@H](C2CCCC2)N(C)C(=O)C2(CCCC2)NC(=O)[C@@H]2CCCN2C(=O)[C@H](CCc2ccc(C(F)(F)F)c(Cl)c2)NC(=O)CN(C)C(=O)[C@H](Cc2ccc(F)cc2)N2CCCCC[C@@H](C2=O)N(C)C(=O)CN(C)C1=O [PP0971] | B (a compound having 3 or more and less than 10 is denoted as B) | B (a compound having 3 or more and less than 10 is denoted as B) |  |  |  |
| CC[C@H](C)[C@@H]1NC(=O)[C@H](CC(C)C)N(C)C(=O)C[C@@H](C(=O)N2C[C@@H](C)O[C@@H](C)C2)N(C)C(=O)[C@H](C2CCCC2)N(C)C(=O)C2(CCCC2)NC(=O)[C@@H]2CCCN2C(=O)[C@H](CCc2ccc(C(F)(F)F)c(Cl)c2)NC(=O)CN(C)C(=O)[C@H](Cc2ccc(F)cc2)N2CCCCC[C@@H](C2=O)N(C)C(=O)CN(C)C1=O [PP1151] | B (a compound having 3 or more and less than 10 is denoted as B) | B (a compound having 3 or more and less than 10 is denoted as B) |  |  |  |
| CCC[C@H]1C(=O)N[C@@H]([C@@H](C)CC)C(=O)N(C2CC2)CC(=O)N(C)[C@H]2C/C=C\CCN(C2=O)[C@@H](Cc2ccc(C)cc2)C(=O)N(C)CC(=O)N[C@@H](CCc2ccc(C(F)(F)F)c(CC)c2)C(=O)N2C[C@H](OCC)C[C@H]2C(=O)NC2(CC(C)(C)C2)C(=O)N(C)[C@@H](C2CCCC2)C(=O)N(C)[C@H](C(=O)N(C)C)CC(=O)N1C [PP2870] |  |  | A (a compound having 10 or more and less than 20 is denoted as A) | A (a compound having 10 or more and less than 20 is denoted as A) |  |
| CC[C@H](C)[C@@H]1NC(=O)[C@H](CC(C)C)N(C)C(=O)C[C@@H](C(=O)N2C3CCC2COC3)N(C)C(=O)[C@H](C2CCCC2)N(C)C(=O)C2(CCCC2)NC(=O)[C@@H]2CCCN2C(=O)[C@H](CCc2cc(F)c(C(F)(F)F)c(F)c2)NC(=O)CN(C)C(=O)[C@H](Cc2ccc(C(F)(F)F)cc2)N2CCCC[C@@H](C2=O)N(C)C(=O)CN(C)C1=O [PP0573] |  |  |  |  | NRAS/KRAS (ratio of KD value with respect to NRAS to KD value with respect to KRAS) [1]: B (a compound having 3 or more and less than 10 is denoted as B); HRAS/KRAS (ratio of KD value with respect to HRAS to KD value with respect to KRAS) [2]: B (a compound having 3 or more and less than 10 is denoted as B) |
| CC[C@H](C)[C@@H]1NC(=O)[C@H](CC(C)C)N(C)C(=O)C[C@@H](C(=O)N2C3CCC2COC3)N(C)C(=O)[C@H](C2CCCC2)N(C)C(=O)C2(CCCC2)NC(=O)[C@@H]2CCCN2C(=O)[C@H](CCc2cc(F)c(C(F)(F)F)c(F)c2)NC(=O)CN(C)C(=O)[C@H](Cc2ccc(C(F)(F)F)cc2)N2CCCCC[C@@H](C2=O)N(C)C(=O)CN(C)C1=O [PP0511] |  |  |  |  | NRAS/KRAS (ratio of KD value with respect to NRAS to KD value with respect to KRAS) [1]: A (a compound having 10 or more and less than 20 is denoted as A); HRAS/KRAS (ratio of KD value with respect to HRAS to KD value with respect to KRAS) [2]: B (a compound having 3 or more and less than 10 is denoted as B) |
